Results: patent US11110195B2, “Esculentin 1a derivatives and uses thereof” (University of Houston System, priority 2013, dated 2021)
In brackets after ≈: the same amount, converted by molar mass. Where two headings read alike, the source gives them in different places. Residues, ends and D or L forms follow the SMILES beside them.

Columns and labels:
[1] = test system: human telomerase immortalized corneal epithelial cells; test: in vitro; details: 24 hrs
Experimental: (§1) Human corneal epithelial cells were incubated with varying concentrations of Esc-1a(1-21)NH2 for 24 hrs then cytotoxicity determined by MTT assay. Data are the mean of 3 independent experiments.
(§2) To determine the toxicity of Esc-1a(1-21)NH2 to human telomerase immortalized corneal epithelial cells, the following experiment was performed. The MTT (3-(4,5-Dimethylthiazole-2-yl)-2,5-diphenyltetrazolium bromide) assay measures the activity of enzymes that reduce the tetrazolium blue dye to a formazan salt. Mitochondrial reductase enzymes will reduce MTT to formazan, which can be visualized by colorimetric reaction the absorbance of which can be quantified.
(§3) MTT assay was performed on human telomerase immortalized corneal epithelial cells treated with different concentrations of the peptide for 24 hrs. The test was performed in triplicate or quadruplicate wells with concentrations of the peptide of up to 100 μM using the following protocol. On day 1, plated the telomerase immortalized epithelial cells at 10,000 cells/well in a 96 well plate. Incubated the plate at 37° C. for […] to allow the cells to attach to the plate and spread. On day 2, incubated the cells in serum free media for at least 6 hrs prior to peptide treatment. On day 3, stimulated the cells with 100, 50, 25, 10, 5, 1, 0.5 and 0.1 μM Esc-1a(1-21)NH2 in quadruplicate for 24 hrs. On day 4, added 50 μl of 0.02% Benzalkonium chloride into 4 wells as a positive control for 15 minutes. Added 50 μl of serum free media into all the other wells (total volume 100 μl). Added 10 μl of MTT stock solution into each of the well. Incubated at 37° C. for 3 hours. At the end of 3 hours purple crystals were visible under the microscope. Added 100 μl of stop solution into each well using a multichannel pipette. Pipetted up and down to dissolve all the crystals. Gently popped the bubbles using a 10 μl tip. Read plate using plate reader at 590 nm abs and 635 nm reference. Subtracted reference OD value (635) from 590 OD value and plotted graph.

in vitro = details: human, human telomerase immortalized corneal epithelial cells
Experimental: as §1, §2, §3

[2] = test system: human telomerase immortalized corneal epithelial cells (hTCEpi); test: Wound healing (cell migration) assay, corneal epithelial cells; type: cell-based; details: hTCEpi monolayer
Experimental: The percentage of cell-covered area at each time point was determined and is reported on the y-axis. Control (Ctrl) represents cells not treated with the peptide. All data are the mean of at least three independent experiments ±SE.
To determine cell migration after treatment with Esc-1a(1-21)NH2, a wound healing assay was performed using human telomerase immortalized corneal epithelial cells (hTCEpi) (FIG. 9). Cells were cultured in Keratinocyte growth Medium-2 supplemented with growth factors and Normocin […] (KGM-2g). Cell migration was studied as follows: hTCEpi cells (70,000) suspended in KGM-2g were seeded on each side of ibidi culture inserts for live cell analysis (Ibidi, Munich, Germany). Inserts were placed into 35 mm dishes and incubated at 37° C. and 5% CO2 to allow cells grow to confluence. Afterwards, inserts were removed with sterile tweezers to create a cell-free area (“wound”) of approximately 500 μm; after a wash with 1 ml of PBS, 1 ml of Dulbecco's modified Eagle's medium (DMEM) supplemented with 4 mM L-glutamine, 5% fetal bovine serum (FBS) and the peptide at different concentrations was added. The dishes with inserts were placed in an appropriate incubator and the cells were allowed to migrate. […] The percentage of cell-covered area at each time was determined by WIMASIS Image Analysis program. […]

[3] = test system: Staphylococcus epidermidis; details: Staphylococcus epidermidis n. 21 (326) ME, clinical ocular isolate
Experimental: (§4) To determine the minimum inhibitory concentration (MIC) of Esc-1a(1-21)NH2 that causes total inhibition of microbial growth against Pseudomonas aeruginosa and Staphylococcal strains, the following experiment (using P. aeruginosa ATCC 19660 as an example) was performed. MIC was determined using the 96 well micro-plate dilution assay. The test was performed in triplicate wells and Esc-1a(1-21)NH2 was serially diluted to give concentrations of 0.125 μM to 64 μM.
(§5) Day 1: Picked a colony from a P. aeruginosa ATCC19660 streak plate, inoculated in to nutrient broth and incubated overnight at 37° C. with shaking (250 rpm) Day 2 Steps: Removed 100 μl of the bacterial suspension and inoculated into 50 ml of fresh broth. Incubated for 2.5 hours with vigorous shaking (250 rpm) at 37° C. to achieve mid-log phase growth. Centrifuged the 50 ml culture at 3100 g for 10 minutes; discarded supernatant and resuspended pellet in 2 ml Muller-Hinton broth (MHB). Adjusted the optical density (OD) of the bacterial culture to 0.2 at 620 nm (corresponds to ˜10^7 CFU/ml) and diluted to 2×10^6 CFU/ml using MHB media. Thawed an aliquot of the peptide on ice. Pipetted 90 μl of MHB into wells A1, B1 and C1 and 50 μl of MHB media into A2-C2 through A12-C12. Added 10 μl of Esc-1a(1-21)NH2 into wells A1, B1 and C1 and performed serial twofold dilutions of peptide in a volume of 50 μl from column 1 to column 10 (i.e. transferred 50 μl from A1, B1 and C1 to A2, B2 and C2 and so on till A10-C10). […] Pipetted 50 μl of the diluted P. aeruginosa ATCC 19660 in to each well using a multichannel pipette (final concentration was 1×10^5 bacteria in 100 μl volume). Wrapped the plate using parafilm to prevent evaporation and incubated in a shaker incubator (150 rpm) at 37° C. for 18-24 h.
(§6) Day 3 Steps: Read the plate using the spectrophotometer at 590 nm after examining the plates visually for turbidity. Generated spot plates to check for bacterial growth by plating out the contents of the first 3 wells showing no visible growth of bacteria onto MHA plates. Plated dilutions in duplicate and incubated the plates at 37° C. for 18 hr.
(§7) Day 4: Counted the number of colonies on the agar plates and plotted the data.

Staphylococcus hominis = Staphylococcus hominis n. 1 ME, clinical ocular isolate
Experimental: as §4, §5, §6, §7

Staphylococcus aureus = Staphylococcus aureus n. 6 ME, clinical ocular isolate
Experimental: as §4, §5, §6, §7

Pseudomonas aeruginosa = test system: Pseudomonas aeruginosa
Experimental: as §4, §5, §6, §7

In the case of `CC[C@H](C)[C@H](NC(=O)CN)C(=O)N[C@@H](Cc1ccccc1)C(=O)N[C@@H](CO)C(=O)N[C@@H](CCCCN)C(=O)N[C@@H](CC(C)C)C(=O)N[C@@H](C)C(=O)NCC(=O)N[C@@H](CCCCN)C(=O)N[C@@H](CCCCN)C(=O)N[C@H](C(=O)N[C@@H](CCCCN)C(=O)N[C@@H](CC(N)=O)C(=O)N[C@@H](CC(C)C)C(=O)N[C@@H](CC(C)C)C(=O)N[C@H](C(=O)N[C@@H](CO)C(=O)NCC(=O)N[C@@H](CC(C)C)C(=O)N[C@@H](CCCCN)C(=O)NCC(N)=O)[C@@H](C)CC)[C@@H](C)CC` [Esc-1a(1-21)NH2] (H-GIFSKLAGKKIKNLLISGLKG-NH2; N-terminus assumed), the concentrations significantly cytotoxic ([1]; MTT (FIG. 4)) is reported as “above 50 μM”, the “toxicity to the cells” value ([1]; concentration below 50 μM) is reported as “not toxic” and the viability at 24 h, 50 µM (in vitro) is reported as 75.7%. For the same compound, the viability at 24 h, 100 µM (in vitro) was 17.4%, the “optimal concentration allowing complete coverage of the wound field” value [2] was 0.005 µM and the “time to maximum cell-covered area after peptide addition” value [2] was 9 to 12 h. For the same compound, the MIC [3] was 8 µM (≈ 17.5 µg/mL), the MIC (Staphylococcus hominis) was 1 µM (≈ 2.18 µg/mL) and the MIC (Staphylococcus aureus) was 64 µM (≈ 140 µg/mL). For the same compound, the MIC values range (Pseudomonas aeruginosa; P. aeruginosa clinical isolates) was 2 to 8 µM, the MIC (Pseudomonas aeruginosa; Pseudomonas aeruginosa 1 Rm, clinical ocular isolate) was 4 µM (≈ 8.74 µg/mL) and the MIC (Pseudomonas aeruginosa; Pseudomonas aeruginosa ATCC 19660, reference strain) was 16 µM (≈ 35 µg/mL). It also gave an MIC (Pseudomonas aeruginosa; Pseudomonas aeruginosa R1, clinical ocular isolate) of 2 µM (≈ 4.37 µg/mL), an MIC (Pseudomonas aeruginosa; Pseudomonas aeruginosa n. 2 ME, clinical ocular isolate) of 8 µM (≈ 17.5 µg/mL) and an MIC (Pseudomonas aeruginosa; Pseudomonas aeruginosa n. 3, clinical ocular isolate) of 8 µM (≈ 17.5 µg/mL).
